Test results published in patent publication US10981926B2 (Janssen Pharmaceutica NV, priority 2016, dated 2021).

How the values were obtained:
Type in all cases: cell-based
[1] = biological target: T1, wild-type Androgen Receptor (AR-wt) (Homo sapiens (Human), UniProt P10275); experiment: LNCaP-AR-wt AG reporter assay (agonist mode); settings: for EC50 / LNCaP-AR-wt AG pEC50: agonist mode, pEC50 = −Log10(EC50 in Molar); for EC50: read-out: LNCaP-AR-wt AG pEC50 (converted); for Emax: maximum % stimulation (agonist response) over the tested concentration range, read-out: LNCaP-AR-wt AG MAX % Stim
T1 sequence (P10275 whole entry): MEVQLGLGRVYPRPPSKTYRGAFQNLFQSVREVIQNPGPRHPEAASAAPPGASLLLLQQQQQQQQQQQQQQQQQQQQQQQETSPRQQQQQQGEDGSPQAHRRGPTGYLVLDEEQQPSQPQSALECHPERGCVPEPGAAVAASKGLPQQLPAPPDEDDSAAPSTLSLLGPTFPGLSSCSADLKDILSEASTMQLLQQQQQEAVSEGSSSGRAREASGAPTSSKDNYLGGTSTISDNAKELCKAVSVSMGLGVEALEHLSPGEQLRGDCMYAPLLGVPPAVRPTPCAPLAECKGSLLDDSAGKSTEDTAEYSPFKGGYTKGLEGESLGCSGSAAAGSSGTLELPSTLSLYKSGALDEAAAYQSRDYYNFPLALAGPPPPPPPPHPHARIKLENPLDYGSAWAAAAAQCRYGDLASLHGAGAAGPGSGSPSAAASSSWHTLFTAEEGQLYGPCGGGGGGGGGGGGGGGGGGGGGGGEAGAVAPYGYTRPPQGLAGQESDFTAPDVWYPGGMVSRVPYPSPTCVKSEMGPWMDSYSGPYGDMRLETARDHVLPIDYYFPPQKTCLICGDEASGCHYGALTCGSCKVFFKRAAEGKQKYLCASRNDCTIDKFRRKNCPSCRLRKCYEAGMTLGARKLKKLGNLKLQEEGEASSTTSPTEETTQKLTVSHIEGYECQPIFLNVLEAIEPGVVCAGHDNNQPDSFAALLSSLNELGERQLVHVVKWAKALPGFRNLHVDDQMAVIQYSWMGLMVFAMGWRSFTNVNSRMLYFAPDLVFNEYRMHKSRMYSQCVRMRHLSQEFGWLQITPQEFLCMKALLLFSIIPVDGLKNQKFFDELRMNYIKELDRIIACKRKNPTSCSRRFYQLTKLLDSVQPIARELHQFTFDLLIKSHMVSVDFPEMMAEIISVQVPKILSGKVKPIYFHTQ

[2] = biological target: T1, wild-type Androgen Receptor (AR-wt); experiment: LNCaP-AR-wt ANT reporter assay (antagonist mode); settings: for IC50 / LNCaP-AR-wt ANT pIC50: antagonist mode, pIC50 = −Log10(IC50 in Molar); for IC50: read-out: LNCaP-AR-wt ANT pIC50 (converted); for Emax: maximum % inhibition of R1881 control response over the tested concentration range, read-out: LNCaP-AR-wt ANT MAX % Inh
[3] = biological target: T2, F876L mutant Androgen Receptor (AR-F876L) (Homo sapiens (Human), UniProt P10275, F877L); experiment: LNCaP-AR-F876L ANT reporter assay (antagonist mode); settings: for IC50 / LNCaP-AR-F876L ANT pIC50: antagonist mode, pIC50 = −Log10(IC50 in Molar); for IC50: read-out: LNCaP-AR-F876L ANT pIC50 (converted); for Emax: maximum % inhibition of R1881 control response over the tested concentration range, read-out: LNCaP-AR-F876L ANT MAX % Inh
T2 sequence (P10275 whole entry F877L): as the sequence (P10275 whole entry) above, with F877L counted along it

[4] = biological target: T2, F876L mutant Androgen Receptor (AR-F876L); experiment: LNCaP-AR-F876L AG reporter assay (agonist mode); settings: for EC50 / LNCaP-AR-F876L AG pEC50: agonist mode, pEC50 = −Log10(EC50 in Molar); for EC50: read-out: LNCaP-AR-F876L AG pEC50 (converted); for Emax: maximum % stimulation (agonist response) over the tested concentration range, read-out: LNCaP-AR-F876L AG MAX % Stim

SMILES | EC50 [1] [nM] | Emax [1] [%] | IC50 [2] [nM] | Emax [2] [%] | IC50 [3] [nM] | Emax [3] [%] | EC50 [4] [nM] | Emax [4] [%] | LNCaP-AR-wt AG pEC50 [1] | LNCaP-AR-wt ANT pIC50 [2] | LNCaP-AR-F876L ANT pIC50 [3] | LNCaP-AR-F876L AG pEC50 [4]
COC(=O)C1CCC(N2C(=S)N(c3cnc(C#N)c(C(F)(F)F)c3)C(=O)C23CCC3)CC1 (centres unmarked) [Cpd 57, Methyl 4-[6-[6-cyano-5-(trifluoromethyl)-3-pyridyl]-5-oxo-7-thioxo-6,8-diazaspiro[3.4]octan-8-yl]cyclohexanecarboxylate] | > 15100 | 0.3 | 490 | 100 | 200 | 99.1 | > 15100 | 0.3 |  |  |  | 
CC(C)(C)OC(=O)N1C2CCC1C(F)C(Oc1ccc(N3C(=S)N(c4cnc(C#N)c(C(F)(F)F)c4)C(=O)C34CCC4)cc1)C2 (centres unmarked) [Cpd 85, tert-butyl 3-[4-[6-[6-cyano-5-(trifluoromethyl)-3-pyridyl]-5-oxo-7-thioxo-6,8-diazaspiro[3.4]octan-8-yl]phenoxy]-4-fluoro-8-azabicyclo[3.2.1]octane-8-carboxylate] |  | -0.1 |  | 88.3 |  | 85.8 |  | 0.6 | <4.82 | 6.46 | 6.37 | <4.82
C=CCN1CCC(Oc2ccc(N3C(=S)N(c4cnc(C#N)c(Cl)c4)C(=O)C34CCC4)cn2)CC1 [Cpd 89, 5-[8-[6-[(1-allyl-4-piperidyl)oxy]-3-pyridyl]-5-oxo-7-thioxo-6,8-diazaspiro[3.4]octan-6-yl]-3-chloro-pyridine-2-carbonitrile] | > 15100 | 0.2 | 67.6 | 101 | 55 | 98.4 | > 15100 | 3.3 |  |  |  | 
C=CCN1CCC(Oc2ccc(N3C(=S)N(c4cnc(C#N)c(C)c4)C(=O)C34CCC4)cn2)CC1 [Cpd 99, 5-[8-[6-[(1-allyl-4-piperidyl)oxy]-3-pyridyl]-5-oxo-7-thioxo-6,8-diazaspiro[3.4]octan-6-yl]-3-methyl-pyridine-2-carbonitrile] | > 15100 | 0.5 | 174 | 101 | 72.4 | 99.7 | > 15100 | 0.2 |  |  |  | 
CC(C)(C)OC(=O)N1C2CCC1CC(c1ccc(N3C(=S)N(c4cnc(C#N)c(C(F)(F)F)c4)C(=O)C34CCC4)cc1)C2 (centres unmarked) [Cpd 113, tert-butyl 3-[4-[6-[6-cyano-5-(trifluoromethyl)-3-pyridyl]-5-oxo-7-thioxo-6,8-diazaspiro[3.4]octan-8-yl]phenyl]-8-azabicyclo[3.2.1]octane-8-carboxylate] |  | 0.3 |  | 89 |  | 83.6 |  | 1.8 | <4.82 | 6.35 | 6.26 | <4.82
CN1C2CCC1CC(c1ccc(N3C(=S)N(c4cnc(C#N)c(C(F)(F)F)c4)C(=O)C34CCC4)cc1)C2 (centres unmarked) [Cpd 114, 5-(5-(4-(8-methyl-8-azabicyclo[3.2.1]octan-3-yl)phenyl)-8-oxo-6-thioxo-5,7-diazaspiro[3.4]octan-7-yl)-3-(trifluoromethyl)picolinonitrile] | > 15100 | -0.1 | 2690 | 102 | 1020 | 101 | > 15100 | 0.3 |  |  |  | 
N#Cc1ncc(N2C(=O)C3(CCC3)N(c3ccc(C4=CC5CCC(C4)N5)cc3)C2=S)cc1C(F)(F)F (centres unmarked) [Cpd 116, 5-[8-[4-(8-azabicyclo[3.2.1]oct-3-en-3-yl)phenyl]-5-oxo-7-thioxo-6,8-diazaspiro[3.4]octan-6-yl]-3-(trifluoromethyl)pyridine-2-carbonitrile] |  | 0.5 |  | 102 |  | 102 |  | 0.8 | <4.82 | 5.96 | 6.01 | <4.82

Continued, in another order:

EC50 [1] [nM] | Emax [1] [%] | IC50 [2] [nM] | Emax [2] [%] | IC50 [3] [nM] | Emax [3] [%] | EC50 [4] [nM] | Emax [4] [%] | SMILES | LNCaP-AR-wt AG pEC50 [1] | LNCaP-AR-wt ANT pIC50 [2] | LNCaP-AR-F876L ANT pIC50 [3] | LNCaP-AR-F876L AG pEC50 [4]
> 15100 | 0.7 | 316 | 100 | 145 | 100 | > 15100 | 0.5 | CC(C)(C)OC(=O)N1CCN(Cc2ccc(N3C(=S)N(c4cnc(C#N)c(C(F)(F)F)c4)C(=O)C34CCC4)cc2)CC1 [Cpd 47, tert-butyl 4-[[4-[6-[6-cyano-5-(trifluoromethyl)-3-pyridyl]-5-oxo-7-thioxo-6,8-diazaspiro[3.4]octan-8-yl]phenyl]methyl]piperazine-1-carboxylate] |  |  |  | 
> 15100 | 2.3 | 53.7 | 98 | 24.5 | 101 | > 15100 | 1.7 | N#CCN1CCC(Oc2ccc(N3C(=S)N(c4cnc(C#N)c(Cl)c4)C(=O)C34CCC4)cc2)CC1 [Cpd 51, 3-chloro-5-[8-[4-[[1-(cyanomethyl)-4-piperidyl]oxy]phenyl]-5-oxo-7-thioxo-6,8-diazaspiro[3.4]octan-6-yl]pyridine-2-carbonitrile] |  |  |  | 
> 15100 | 0.4 | 631 | 84.5 | 676 | 85.2 | > 15100 | 0.1 | CC(C)(C)OC(=O)N1CC(F)(F)CC1COc1ccc(N2C(=S)N(c3cnc(C#N)c(C(F)(F)F)c3)C(=O)C23CCC3)cc1 (centres unmarked) [Cpd 56, tert-butyl 2-[[4-[6-[6-cyano-5-(trifluoromethyl)-3-pyridyl]-5-oxo-7-thioxo-6,8-diazaspiro[3.4]octan-8-yl]phenoxy]methyl]-4,4-difluoro-pyrrolidine-1-carboxylate] |  |  |  | 
> 15100 | 0.3 | 132 | 101 | 91.2 | 100 | > 15100 | 0.2 | CC(C)(C)OC(=O)NC1C(C)(C)C(Oc2ccc(N3C(=S)N(c4cnc(C#N)c(C(F)(F)F)c4)C(=O)C34CCC4)cc2)C1(C)C (centres unmarked) [Cpd 110, tert-butyl N-[3-[4-[6-[6-cyano-5-(trifluoromethyl)-3-pyridyl]-5-oxo-7-thioxo-6,8-diazaspiro[3.4]octan-8-yl]phenoxy]-2,2,4,4-tetramethyl-cyclobutyl]carbamate] |  |  |  | 
> 15100 | 0 | 97.7 | 102 | 112 | 99.4 | > 15100 | 0.9 | C#CCN1CC(Oc2ccc(N3C(=S)N(c4cnc(C#N)c(C(F)(F)F)c4)C(=O)C34CCC4)cc2)C1 [Cpd 117, 5-(8-oxo-5-(4-((1-(prop-2-yn-1-yl)azetidin-3-yl)oxy)phenyl)-6-thioxo-5,7-diazaspiro[3.4]octan-7-yl)-3-(trifluoromethyl)picolinonitrile] |  |  |  | 
> 15100 | 0.1 | 490 | 101 | 676 | 93.7 | > 15100 | 0.8 | CC(C)(C)OC(=O)N1CCc2cc(N3C(=S)N(c4cnc(C#N)c(C(F)(F)F)c4)C(=O)C34CCC4)ccc2C1 [Cpd 118, tert-butyl 6-[6-[6-cyano-5-(trifluoromethyl)-3-pyridyl]-5-oxo-7-thioxo-6,8-diazaspiro[3.4]octan-8-yl]-3,4-dihydro-1H-isoquinoline-2-carboxylate] |  |  |  | 
> 15100 | 0.2 | 200 | 100 | 339 | 101 | > 15100 | 1.1 | CC(=O)N1CCc2cc(N3C(=S)N(c4cnc(C#N)c(C(F)(F)F)c4)C(=O)C34CCC4)ccc2C1 [Cpd 120, 5-(5-(2-acetyl-1,2,3,4-tetrahydroisoquinolin-6-yl)-8-oxo-6-thioxo-5,7-diazaspiro[3.4]octan-7-yl)-3-(trifluoromethyl)picolinonitrile] |  |  |  | 
> 15100 | -0.1 | 138 | 97.9 | 129 | 99.8 | > 15100 | 0.5 | CC(C)(C)OC(=O)N1CCC(n2cc3cc(N4C(=S)N(c5cnc(C#N)c(C(F)(F)F)c5)C(=O)C45CCC5)ccc3n2)CC1 [Cpd 121, tert-butyl 4-[5-[6-[6-cyano-5-(trifluoromethyl)-3-pyridyl]-5-oxo-7-thioxo-6,8-diazaspiro[3.4]octan-8-yl]indazol-2-yl]piperidine-1-carboxylate] |  |  |  | 
> 15100 | 0.3 | 282 | 98 | 282 | 96.4 | > 15100 | 0.7 | CC(C)(C)OC(=O)N1CCC(Cn2cc3cc(N4C(=S)N(c5cnc(C#N)c(C(F)(F)F)c5)C(=O)C45CCC5)ccc3n2)CC1 [Cpd 122, tert-Butyl 4-[[5-[6-[6-cyano-5-(trifluoromethyl)-3-pyridyl]-5-oxo-7-thioxo-6,8-diazaspiro[3.4]octan-8-yl]indazol-2-yl]methyl]piperidine-1-carboxylate] |  |  |  | 
